The values below come from ChEMBL document CHEMBL5042507, “One-Pot Procedure for the Synthesis of Asymmetric Substituted Ureido Benzene Sulfonamides as Effective Inhibitors of Carbonic Anhydrase Enzymes” (J Med Chem, 2022).

As a reminder, the Ki is the equilibrium dissociation constant of an inhibitor or competing ligand from its target. Low readings indicate a stronger hold on the target, high ones a looser hold on the target.

Active and inactive are the calls of the source. The rule behind the calls is not given here.

Among the targets are Carbonic anhydrase 9 (Homo sapiens, UniProt Q16790); Carbonic anhydrase 1 (Homo sapiens, UniProt P00915); Carbonic anhydrase 12 (Homo sapiens, UniProt O43570).
In experiment [1] the test system is Oryctolagus cuniculus. Put plainly: Antiglaucoma activity in New Zealand albino rabbit assessed as reduction in intraocular pressure administered topically as eye drops measured after 4 hrs by pneumotonometer-analysis. In kind it is functional.
The test system of experiment [2] is Oryctolagus cuniculus. Put plainly: Antiglaucoma activity in New Zealand albino rabbit assessed as reduction in carbomer-induced intraocular pressure administered topically as eye drops measured at 60 to 120 mins post administration by pneumotonometer-analysis. The class given is functional. The note with it: time 60-120 min.
Experiment [3] deals with Oryctolagus cuniculus. Put plainly: Antiglaucoma activity in New Zealand albino rabbit assessed as reduction in carbomer-induced intraocular pressure administered topically as eye drops measured at 240 mins post-drug administration by pneumotonometer-analysis. In kind it is functional. To be noted: 4 h.
In experiment [4] the test system is Oryctolagus cuniculus. Put plainly: Antiglaucoma activity in New Zealand albino rabbit assessed as reduction in carbomer-induced intraocular pressure administered topically as eye drops measured at 60 mins post-drug administration by pneumotonometer-analysis. The class given is functional. The note with it: 1 h.

Chain of Carbonic anhydrase 1 (P00915 whole entry): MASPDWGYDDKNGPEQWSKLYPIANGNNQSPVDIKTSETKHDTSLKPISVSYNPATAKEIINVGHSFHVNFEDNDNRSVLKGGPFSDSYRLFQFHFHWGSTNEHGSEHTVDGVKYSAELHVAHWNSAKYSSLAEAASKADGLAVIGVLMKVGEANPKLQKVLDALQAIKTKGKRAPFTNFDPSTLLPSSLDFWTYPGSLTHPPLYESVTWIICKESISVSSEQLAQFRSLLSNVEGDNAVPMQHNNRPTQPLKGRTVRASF
Chain of Carbonic anhydrase 12 (O43570 whole entry): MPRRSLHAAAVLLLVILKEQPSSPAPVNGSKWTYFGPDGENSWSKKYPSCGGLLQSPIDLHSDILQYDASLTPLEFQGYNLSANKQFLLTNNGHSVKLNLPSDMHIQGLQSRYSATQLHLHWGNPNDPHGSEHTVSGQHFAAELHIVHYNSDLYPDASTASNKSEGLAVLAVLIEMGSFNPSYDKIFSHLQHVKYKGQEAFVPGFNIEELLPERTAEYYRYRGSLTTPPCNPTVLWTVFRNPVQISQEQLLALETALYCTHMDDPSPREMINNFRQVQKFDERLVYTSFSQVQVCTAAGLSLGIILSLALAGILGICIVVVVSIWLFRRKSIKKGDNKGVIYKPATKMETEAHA
Description for Carbonic anhydrase 12: Inhibition of human CA12 preincubated for 15 mins by phenol red dye based stopped flow CO2 hydration assay
Description for Carbonic anhydrase 9: Inhibition of human CA9 preincubated for 15 mins by phenol red dye based stopped flow CO2 hydration assay

`CC(C)N(C(=O)Nc1cccc(S(N)(=O)=O)c1)C(C)C`: the Ki at Carbonic anhydrase 9 worked out at 2.09 µM. In other words, the single-digit micromolar range.
Take `COC(=O)CCC(NC(=O)Nc1ccc(S(N)(=O)=O)cc1)C(=O)OC` (stereo not given): the Ki at Carbonic anhydrase 1 is 0.062 µM; at Carbonic anhydrase 12, 0.726 µM; at Carbonic anhydrase 9, 0.596 µM.
Compound `CCCCCCN(CCCCCC)C(=O)Nc1cccc(S(N)(=O)=O)c1` had a Ki at Carbonic anhydrase 9 of 2.11 µM.
On to `CC(C)NC(=O)Nc1cccc(S(N)(=O)=O)c1`, for which the results for the Ki at Carbonic anhydrase 12 and at Carbonic anhydrase 9 were 0.613 µM and 2.17 µM, respectively.
For the compound `CN(C)C(=O)Nc1ccc(S(N)(=O)=O)cc1`, the inhibitory constant (Ki) amounted to 0.483 µM on Carbonic anhydrase 1, 0.705 µM at Carbonic anhydrase 12 and 1.4 µM at Carbonic anhydrase 9.
`CCC(C)NC(=O)Nc1ccc(S(N)(=O)=O)cc1` (stereo not given): the Ki on Carbonic anhydrase 1 is 0.669 µM; on Carbonic anhydrase 12 it was 0.637 µM; on Carbonic anhydrase 9, 0.507 µM.
The matching figures for `COC(=O)CCCNC(=O)Nc1cccc(S(N)(=O)=O)c1`: 8.28 µM, 0.494 µM and 0.746 µM.
The matching figures for `NS(=O)(=O)c1cccc(NC(=O)NCCc2ccccc2)c1`: 0.296 µM, 0.487 µM and 1.33 µM.
The compound `CC(C)CN(CC(C)C)C(=O)Nc1cccc(S(N)(=O)=O)c1` yielded a Ki at Carbonic anhydrase 9 of 1.79 µM.
As to `COC(=O)C(CCSC)NC(=O)Nc1cccc(S(N)(=O)=O)c1` (stereo not given), the results for the Ki at Carbonic anhydrase 1, at Carbonic anhydrase 12 and at Carbonic anhydrase 9 were 1.73 µM, 0.426 µM and 1.38 µM, respectively.
For `CN(CCc1ccccc1)C(=O)Nc1cccc(S(N)(=O)=O)c1`, the Ki on Carbonic anhydrase 9 is 1.18 µM.
Turning to `COC(=O)CC(NC(=O)Nc1cccc(S(N)(=O)=O)c1)C(=O)OC` (stereo not given), the Ki on Carbonic anhydrase 1 amounted to 8.38 µM; at Carbonic anhydrase 9, 0.86 µM.
As for `NS(=O)(=O)c1cccc(NC(=O)Nc2ccccc2F)c1`, the Ki stood at 0.737 µM on Carbonic anhydrase 1, 0.512 µM on Carbonic anhydrase 12 and 1.48 µM at Carbonic anhydrase 9.
The matching figures for `CCC(C)NC(=O)Nc1cccc(S(N)(=O)=O)c1` (stereo not given): 0.0699 µM, 0.6 µM and 2.12 µM.
Take `NS(=O)(=O)c1cccc(NC(=O)Nc2cccc(C(F)(F)F)c2)c1`: the Ki came to 2.06 µM at Carbonic anhydrase 1, 0.49 µM at Carbonic anhydrase 12 and 1.6 µM at Carbonic anhydrase 9.
The matching figures for `CCN(CC)C(=O)Nc1cccc(S(N)(=O)=O)c1`: 2.88 µM, 0.375 µM and 1.73 µM.
Consider `COC(=O)CNC(=O)Nc1cccc(S(N)(=O)=O)c1`, for which the Ki on Carbonic anhydrase 1 was found to be 6.07 µM; on Carbonic anhydrase 9, 0.825 µM.
As to `NS(=O)(=O)c1cccc(NC(=O)N2CCCCC2)c1`, the results for the Ki at Carbonic anhydrase 1, on Carbonic anhydrase 12 and on Carbonic anhydrase 9 were 0.178 µM, 0.278 µM and 0.541 µM, respectively.
For `CC(C)NC(=O)Nc1ccc(S(N)(=O)=O)cc1`, in that order: 0.438 µM, 0.593 µM and 0.64 µM.
Regarding `CCCN(CCC)C(=O)Nc1cccc(S(N)(=O)=O)c1`, at Carbonic anhydrase 9, the affinity corresponds to a Ki of 2.19 µM.
Regarding `CCN[C@H]1C[C@H](C)S(=O)(=O)c2sc(S(N)(=O)=O)cc21` [DORZOLAMIDE], the Activity in the experiment with Oryctolagus cuniculus [1] was 24 mmHg.
As to `NS(=O)(=O)c1cccc(NC(=O)Nc2ccccc2)c1`, the values for the Ki on Carbonic anhydrase 1, at Carbonic anhydrase 12 and at Carbonic anhydrase 9 were 0.449 µM, 0.356 µM and 1.8 µM, respectively.
`COC(=O)CNC(=O)Nc1ccc(S(N)(=O)=O)cc1` came in with a Ki on Carbonic anhydrase 9 of 1.92 µM. This lies in the single-digit micromolar range.
Regarding `COC(=O)CNC(=O)CNC(=O)Nc1cccc(S(N)(=O)=O)c1`, the figures for the Ki at Carbonic anhydrase 1, at Carbonic anhydrase 12 and on Carbonic anhydrase 9 were 7.19 µM, 0.344 µM and 0.691 µM, respectively.
For `COC(=O)C(CC(C)C)NC(=O)Nc1ccc(S(N)(=O)=O)cc1` (stereo not given), in that order: 0.226 µM, 0.586 µM and 0.937 µM.
`NS(=O)(=O)c1ccc(NC(=O)NCC(=O)NCC(=O)O)cc1`: the outcome in the experiment on Oryctolagus cuniculus [2] and in the experiment on Oryctolagus cuniculus [1] was Active. For the same compound, the Ki came out at 7.57 µM at Carbonic anhydrase 1, 0.426 µM at Carbonic anhydrase 12 and 1.57 µM on Carbonic anhydrase 9. Moreover, in the experiment with Oryctolagus cuniculus [3], the Activity was found to be 19 mmHg.
`CN(Cc1ccccc1)C(=O)Nc1cccc(S(N)(=O)=O)c1`: the Activity in the experiment on Oryctolagus cuniculus [2] is listed as 11 mmHg. The outcome in the experiment on Oryctolagus cuniculus [1] was Active. For the same compound, the affinity at Carbonic anhydrase 9, expressed as Ki, was 1.44 µM.
For the compound `COC(=O)C(CC(C)C)NC(=O)Nc1cccc(S(N)(=O)=O)c1` (stereo not given), the Ki on Carbonic anhydrase 1 was found to be 5.28 µM; at Carbonic anhydrase 12, 0.589 µM; at Carbonic anhydrase 9, 0.839 µM.
Take `COC(=O)C(Cc1ccccc1)NC(=O)Nc1cccc(S(N)(=O)=O)c1` (stereo not given): the Activity in the experiment on Oryctolagus cuniculus [2] was 16 mmHg. Besides, the Ki at Carbonic anhydrase 1 worked out at 0.809 µM; at Carbonic anhydrase 12, 0.275 µM; on Carbonic anhydrase 9, 0.943 µM. In addition, in the experiment with Oryctolagus cuniculus [1], the result was Active.
For the compound `COC(=O)[C@H](Cc1ccccc1)NC(=O)Nc1ccc(S(N)(=O)=O)cc1`, the Activity is 36 mmHg with Oryctolagus cuniculus [4] and 27 mmHg with Oryctolagus cuniculus [1]. Further, the results for the Ki on Carbonic anhydrase 1, on Carbonic anhydrase 12 and on Carbonic anhydrase 9 were 0.0623 µM, 0.0426 µM and 0.126 µM, respectively.
